Test results: PubChem BioAssay AID493003 (Sanford-Burnham Center for Chemical Genomics, 2010)
Calls of active or inactive are those of the source. How the calls were made is not given here.

System: S. cerevisiae tim10-1 mutant growth, luminescence
Experiment: tim10-1 yeast growth inhibition potency – luminescence, S. cerevisiae, uHTS hits, dose response (AID 493003);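 further: yeast growth measured after about 22 hours at 25 °C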

| SMILES | IC50 |
| --- | --- |
| O=c1c2ccccc2[se]n1-c1ccccc1 | 10 µM |
| N/C(=N\OC(=O)CCC1CCCCC1)c1ccccn1 | 26.8 µM |
| Cc1cc(C)n(CC(O)Cn2c3ccc(Br)cc3c3cc(Br)ccc32)c(=O)n1 (centres undefined) | 19.3 µM |
| N/C(=N\OC(=O)CCC1CCCC1)c1ccccc1 | 16.7 µM |
| COC(=O)COc1ccc(S(=O)(=O)N2CCN(c3ccccc3F)CC2)cc1C | > 100 µM (inactive) |
| CN(C)c1ccc(-[n+]2c(-c3ccccc3)cc(-c3ccccc3)cc2-c2ccccc2)cc1 | 23.7 µM |
| Cc1ccc(/C(N)=N/OC(=O)C(C)c2ccc([N+](=O)[O-])cc2)cc1 (centres undefined) | 9.99 µM |
| O=C1CC(Sc2cccs2)C(=O)N1c1ccccc1 (centres undefined) | 30.7 µM |
| CC(C)(C)c1ccc(C(=O)CC(Sc2ccc(Cl)cc2)C(=O)O)cc1 (centres undefined) | 27.6 µM |
| Cc1onc(-c2ccc3c(c2)OCO3)c1-c1ccc2[nH]ccc2c1 | 14.3 µM |
| S=c1[nH]nc(CSc2nc3ccccc3s2)n1C1CCCCC1 | > 100 µM (inactive) |
| CCOC(=O)c1ccc(N=c2ssnc2Cl)cc1 | 10.4 µM |
| CC(CNC(=O)COc1ccccc1)OC(=O)Nc1ccc(Cl)c(Cl)c1 (centres undefined) | 20.2 µM |
| CCCOc1ccccc1NC(=O)/C=C/C(N)=O | 5.67 µM |
| Cc1cc(C)n(-c2nnc(NC34CC5CC(CC(C5)C3)C4)nn2)n1 | 46.4 µM |
| Cc1cc(Br)c(Cl)cc1NC(=O)CN1C(=O)C2C3CC(c4ccccc4)C(C3)C2C1=O (centres undefined) | 27.1 µM |
| Cc1cc(C)cc(N2C(=O)CC(Sc3nnnn3-c3ccccc3)C2=O)c1 (centres undefined) | 13.6 µM |
| CN1/C(=C\C(=O)Nc2ccc(Br)cc2)C(C)(C)c2ccccc21 | 38.7 µM |
| COc1cccc(-c2csc(N3CCN(C(=S)Nc4ccccc4Cl)CC3)n2)c1 | 21.3 µM |
| CCCc1[nH]c2ccc(C#N)cc2c1CCC | 41.3 µM |
| CC(NC(=O)c1cccc(Cl)c1)C1CC2CCC1C2 (centres undefined) | 42.3 µM |
| O=C1C=C(NC(=O)Nc2ccc(Cl)c(Cl)c2)CCC1 | 95.6 µM |
| CC(C)(C)c1ccc(-c2n[nH]c(=S)n2Cc2ccccc2)cc1 | 33.1 µM |

| SMILES | IC50 |
| --- | --- |
| CCOC(=O)c1ccc(N2C(=O)CC(N3CCC(C(=O)OCC)CC3)C2=O)cc1 (centres undefined) | 15.1 µM |
| CC(C)(O)[C@H]1O[C@H]2CC[C@@]3(C)[C@@](O)(CC[C@H]4Cc5c([nH]c6ccccc56)[C@@]43C)C2=CC1=O | 33.5 µM |
| CC1=CC(=O)C=C(C)C1=NOC(=O)/C=C\c1ccccc1 | 42.4 µM |
| CCCCNC(=S)N=Nc1c(O)[nH]c2ccccc12 | 9.9 µM |
| CCOC(=O)c1sc(=S)n(Cc2ccccc2)c1N | 50.4 µM |
| NNc1nc(-c2ccccc2)c2cc(Br)ccc2n1 | 10.1 µM |
| O=C(C1CCCN(S(=O)(=O)c2cccc3nsnc23)C1)N1CCc2ccccc21 (centres undefined) | 81.1 µM |
| Cc1ccc(O)c(-c2cc(-c3cccc(F)c3)n[nH]2)c1 | 97.9 µM |
| N/C(=N\OC(=O)CCCc1ccccc1)c1ccc([N+](=O)[O-])cc1 | 28.5 µM |
| COc1cc(/C=N/N=C2/C(=O)Nc3ccccc32)cc(OC)c1O | 30.1 µM |
| O=c1c2ccccc2oc2ccc(C#CC3(O)CCCCC3)cc12 | 23.3 µM |
| O=C1NCCc2c1[nH]c1c(Cl)ccc(Cl)c21 | 47.8 µM |
| FC(F)Sc1ccc(NC(=S)NC2CCCC2)cc1 | 20.8 µM |
| FC(F)(F)c1ccc(NC(=S)NC2CCCCC2)cc1 | 27.7 µM |
| Cc1cccc(/C=C2\Oc3cc(OS(C)(=O)=O)ccc3C2=O)c1 | 31.9 µM |
| S=c1[nH]nc(Nc2ccc(Cl)cc2)s1 | 20.8 µM |
| COc1cccc(N2C(C(C)=O)=NN(c3ccccc3)C2c2ccc(N3CCOCC3)cc2)c1 (centres undefined) | > 100 µM (inactive) |
| Cc1oc2cc(Br)c(O)c(Br)c2c1C(=O)c1ccccc1 | 25.9 µM |
| COC(=O)C(C(C)=O)C1=C/C(=N\S(=O)(=O)c2ccc(C)cc2)c2ccccc2C1=O (centres undefined) | 8.03 µM |
| O=C(NC1CCCCC1)c1ccc(-c2ccc(Cl)cc2)o1 | 17.4 µM |
| CC(C)(C)c1ccc(CN2N=Nc3ccccc3S2(=O)=O)cc1 | 6.1 µM |
| O=C(O/N=C(/c1ccccc1)c1ccncc1)c1ccccc1[N+](=O)[O-] | 29 µM |
| COc1ccc(-c2cn3c(C)c(C(=O)N4CCc5ccccc5C4)sc3n2)cc1 | 40 µM |

| SMILES | IC50 |
| --- | --- |
| COc1cccc(-c2nn(C)c3sc(C(=O)N4CCN(c5ccccn5)CC4)cc23)c1 | 46.2 µM |
| CCOc1ccccc1NC(=O)/C=C/C(N)=O | 14.4 µM |
| O=[N+]([O-])c1cc(Cl)ccc1N1CCN(c2ccccc2O)CC1 | 32.3 µM |
| Cc1[nH]c2ccccc2c1C(O)CN1CCN(c2cccc(C(F)(F)F)c2)CC1 (centres undefined) | 21.3 µM |
| O=S(=O)(CCN(CCS(=O)(=O)C(F)(F)F)CC1CCCO1)C(F)(F)F (centres undefined) | 7.82 µM |
| N/C(=N\OC(=O)CCC1CCCC1)c1cccc([N+](=O)[O-])c1 | 6.48 µM |
| Clc1cccc(C2Nc3cccc4cccc(c34)N2)c1Cl | 25.7 µM |
| Nc1ccccc1C(=O)/C=C/c1ccc2c(c1)OCO2 | 14.8 µM |
| CCCCNC(=S)Nc1ccc(C(F)(F)F)cc1 | 18.3 µM |
| Cc1c(C(=O)N2CCN(c3ccc(C(F)(F)F)cn3)CC2)oc2ccccc12 | 41.6 µM |
| CN(CCCC(=O)O)c1ccc(N=Nc2ccc([N+](=O)[O-])cc2)cc1 | 19.5 µM |
| COc1ccc2[nH]c3c(=O)n4c(nc3c2c1)SCC4 | 79.9 µM |
| Cc1cccc(NC(=O)c2ccc([N+](=O)[O-])s2)n1 | 6.52 µM |
| CCOC(=O)C1CCN(C(=O)c2oc3ccc4c(c3c2C)C(O)CC2(CCCCC2)O4)CC1 (centres undefined) | 26 µM |
| CC1(CC(=O)N/N=C/c2ccc(OCc3ccc(Cl)cc3Cl)cc2)OCCCO1 | 5.77 µM |
| Cc1ccccc1NC(=O)CSc1nc(N)c2c3c(sc2n1)CSC(C)(C)C3 | 36.6 µM |
| O=C(c1ccco1)N1CCN(c2ncnc3scc(-c4ccccc4)c23)CC1 | 17.7 µM |
| CCCCCc1ccc(OCCCC[n+]2ccccc2)c(CCCCC)c1 | 24.8 µM |
| CCN(CC)C1CC(=O)N(c2cccc(Cl)c2)C1=O (centres undefined) | 9.25 µM |
| COc1ccc(-c2cc(C(=O)N3CCN(c4ncccn4)CC3)c3ccccc3n2)c(OC)c1 | 28.5 µM |
| CC1(C)CC2CC(C)(CN2C(=S)NC(=O)c2ccccc2Cl)C1 (centres undefined) | 59.9 µM |
| O=C(Nc1cccc(C(=O)N2CCN(c3cccc(Cl)c3)CC2)c1)c1ccccc1 | 35.2 µM |
| CCCCN(CC)CCCNC(=O)c1cc2cc3ccc(OC)cc3nc2o1 | 17.2 µM |

| SMILES | IC50 |
| --- | --- |
| Cc1c(Cl)cccc1NC(=O)c1cccc(OC(F)F)c1 | 32.8 µM |
| CCOC(=O)N1CCN(S(=O)(=O)c2ccc(C(=O)N(CCN(CC)CC)c3nc4ccc(C)cc4s3)cc2)CC1 | 60.8 µM |
| CCN1CCN(C(c2cccnc2)c2cc(Cl)c3cccnc3c2O)CC1 (centres undefined) | 18 µM |
| O=C(CNS(=O)(=O)c1c(Cl)cccc1Cl)OCc1csc(-c2ccccc2)n1 | 41 µM |
| S=C(NCCCc1ccccc1)Nc1ccc(Cl)cc1 | 11.4 µM |
| COc1ccc(S(=O)(=O)Nc2ccc(O)c(Sc3nc4ccccc4s3)c2)cc1 | 34.1 µM |
| O=C1CC(N2CCCCCC2)C(=O)N1c1ccc(F)cc1 (centres undefined) | 13.9 µM |
| CC1=C/C(=N\OS(=O)(=O)c2ccccc2)C(C)=CC1=O | 0.3 µM |
| COc1ccc(N2C(=O)CC(Sc3nnc(-c4ccccc4)o3)C2=O)cc1 (centres undefined) | 47.2 µM |
| Cc1nonc1C(=O)N/N=C/c1ccc(O)cc1 | 30.3 µM |
| CCOc1ccc(-n2cc(-c3ccccc3)c3c(=O)[nH]cnc32)cc1 | 14.9 µM |
| CSc1ccc(/C=C/C(=O)c2ccc(NC(=O)C(C)C)cc2)cc1 | 20.4 µM |
| O=S(=O)(/N=C(/Sc1ccccc1)c1ccccc1)c1ccccc1 | 25.7 µM |
| N#Cc1sc2nc(C3CC3)cc(-c3ccc(Cl)cc3)c2c1N | > 100 µM (inactive) |
| CC(C)(C)c1ccc(C(=O)c2cn[nH]c2-c2ccccc2O)cc1 | 52 µM |
| COc1ccc(Br)cc1[C@H]1[C@@H]2C=CCC[C@@]2(C)C(=O)N1Cc1ccccc1 | 12.1 µM |
| O=C1C2C(c3ccccc3)CC=CC2[C@H](c2ccc3ccccc3c2)N1Cc1ccccc1 (some centres undefined) | 22.9 µM |
| OCCN1CCN(C2Cc3cc(Cl)ccc3Sc3ccc(Cl)cc32)CC1 (centres undefined) (tested in a mixture with another compound) | 20.4 µM |
| CN(C)CCCN(C(=O)c1ccc(Cl)s1)c1nc2cc3c(cc2s1)OCO3 | 29.4 µM |
| COc1ccccc1-c1cc2ccccc2[nH]1 | 46.9 µM |
| COc1ccc2cc3cc(C(=O)Nc4ccccc4N4CCN(C)CC4)oc3nc2c1 | 17.5 µM |
| Cn1c(-c2ccccc2O)cc2ccccc21 | 29.5 µM |
| Cc1nc2scc(C)n2c(=O)c1S(=O)(=O)N1CCN(c2cccc(C(F)(F)F)c2)CC1 | 47.3 µM |

| SMILES | IC50 |
| --- | --- |
| COc1ccc(/C(N)=N/OC(=O)c2ccc3c(c2)OCO3)cc1 | 14.9 µM |
| O=[N+]([O-])c1ccc2oc(C(O)c3cccc(Cl)c3)cc2c1 (centres undefined) | 15.1 µM |
| Cc1ccc(/C(N)=N/OC(=O)N2CCOCC2)cc1 | 24.5 µM |
| NS(=O)(=O)c1ccc(NC(=S)Nc2ccc(Br)c(Cl)c2)cc1 | 31.8 µM |
| CCc1nc(C)cn1S(=O)(=O)c1cc([N+](=O)[O-])ccc1Cl | 16.8 µM |
| Nc1cc2c(cc1C(=O)c1ccc(Cl)cc1)OCCO2 | 38.2 µM |
| Oc1c(Cl)cc(Cl)cc1/C=C/c1ccc2cccc(O)c2n1 | 42.6 µM |
| CN(C1CCCCC1)S(=O)(=O)c1ccc(NC(=O)c2ccc(Br)o2)cc1 | 30.6 µM |
| Cc1nonc1C1CCCN1C(=O)c1cc(COc2cccc(C(F)(F)F)c2)on1 (centres undefined) | 17.3 µM |
| N/C(Cc1ccc(Cl)cc1Cl)=N\OC(=O)Cc1ccc(Cl)cc1 | 1.41 µM |
| COc1ccc(-c2nn(-c3ccccc3)cc2/C=C(\CC(=O)O)c2nc3ccccc3s2)cc1OC | 60.8 µM |
| O=[N+]([O-])c1cccc(NC(=S)NCCc2ccccc2)c1 | 32.8 µM |
| Fc1cccc(-c2cc3nc4c(c(NCc5ccco5)n3n2)CCCC4)c1 | 33.7 µM |
| CN(C)CCCN(C(=O)c1cc2cc([N+](=O)[O-])ccc2s1)c1nc2cc3c(cc2s1)OCCO3 | 13.7 µM |
| O=C(C1CCN(C2CC(=O)N(c3cccc(Cl)c3)C2=O)CC1)N1CCCC1 (centres undefined) | 18.2 µM |
| COC(=O)c1cccc(Nc2cc(C)nc(-c3ccccc3O)n2)c1 | > 100 µM (inactive) |
| CCn1nccc1C(=O)Nc1ccc(Cl)c(Cl)c1 | 24.3 µM |
| Cc1ccc(F)c([C@H]2C3C=CCC(c4ccccc4)C3C(=O)N2Cc2ccccc2)c1 (some centres undefined) | 15.2 µM |
| O=S(=O)(c1ccc2c(c1)OCCO2)N1CCC(O)(c2ccc(Cl)cc2)CC1 | 67.1 µM |
| COC(=O)c1ccccc1NC(=S)NC(=O)C1CCCCC1 | 42.5 µM |
| O=C(Nc1cccnc1)c1cn(-c2ccccc2)nc1-c1cccs1 | 13.2 µM |
| O=C(Nc1nccs1)c1ccc(Br)c(S(=O)(=O)N2CCOCC2)c1 | 27.7 µM |
